According to ChEMBL document CHEMBL3046573, “Baseline sensitivity of Pestalotiopsis microspora, which causes black spot disease on Chinese hickory (Carya cathayensis), to pyraclostrobin” (Crop Prot, 2012):
Converted amounts (≈) assume the structure as drawn.

Tests used:
[1] = tested on: Pestalotiopsis microspora; test: Fungicidal activity against wild type Pestalotiopsis microspora isolate LA-1 assessed as conidium germination inhibition at 25 degC; type: functional, organism-based
[2] = tested on: Pestalotiopsis microspora; test: Resistance factor, ratio of EC50 for pyraclostrobin-resistant mutant Pestalotiopsis microspora isolate CA8R2 to EC50 for wild type Pestalotiopsis microspora isolate CA-8; type: functional
[3] = tested on: Pestalotiopsis microspora; test: Fungicidal activity against pyraclostrobin-resistant mutant Pestalotiopsis microspora isolate CA8R2 assessed as conidium germination inhibition at 25 degC; type: functional, organism-based
[4] = tested on: Pestalotiopsis microspora; test: Resistance factor, ratio of EC50 for pyraclostrobin-resistant mutant Pestalotiopsis microspora isolate CA8R1 to EC50 for wild type Pestalotiopsis microspora isolate CA-8; type: functional
[5] = tested on: Pestalotiopsis microspora; test: Fungicidal activity against wild type Pestalotiopsis microspora isolate CA-8 assessed as conidium germination inhibition at 25 degC; type: functional, organism-based
[6] = tested on: Pestalotiopsis microspora; test: Fungicidal activity against pyraclostrobin-resistant mutant Pestalotiopsis microspora isolate CA8R3 assessed as conidium germination inhibition at 25 degC; type: functional, organism-based
[7] = tested on: Pestalotiopsis microspora; test: Fungicidal activity against pyraclostrobin-resistant mutant Pestalotiopsis microspora isolate LA1R1 assessed as conidium germination inhibition at 25 degC; type: functional, organism-based
[8] = tested on: Pestalotiopsis microspora; test: Fungicidal activity against Pestalotiopsis microspora infected Chinese hickory orchards assessed as mycelial growth inhibition at 25 degC after 5 days; type: functional, organism-based; conditions: 120 h
[9] = tested on: Pestalotiopsis microspora; test: Resistance factor, ratio of EC50 for pyraclostrobin-resistant mutant Pestalotiopsis microspora isolate LA1R2 to EC50 for wild type Pestalotiopsis microspora isolate LA-1; type: functional
[10] = tested on: Pestalotiopsis microspora; test: Resistance factor, ratio of EC50 for pyraclostrobin-resistant mutant Pestalotiopsis microspora isolate CA8R3 to EC50 for wild type Pestalotiopsis microspora isolate CA-8; type: functional
[11] = tested on: Pestalotiopsis microspora; test: Fungicidal activity against pyraclostrobin-resistant mutant Pestalotiopsis microspora isolate LA1R2 assessed as conidium germination inhibition at 25 degC; type: functional, organism-based
[12] = tested on: Pestalotiopsis microspora; test: Resistance factor, ratio of EC50 for pyraclostrobin-resistant mutant Pestalotiopsis microspora isolate LA1R1 to EC50 for wild type Pestalotiopsis microspora isolate LA-1; type: functional
[13] = tested on: Pestalotiopsis microspora; test: Fungicidal activity against pyraclostrobin-resistant mutant Pestalotiopsis microspora isolate CA8R1 assessed as conidium germination inhibition at 25 degC; type: functional, organism-based
[14] = tested on: Pestalotiopsis microspora; test: Fungicidal activity against Pestalotiopsis microspora infected in Chinese hickory orchards assessed as conidium germination inhibition at 25 degC after 24 hr; type: functional, organism-based
[15] = tested on: Pestalotiopsis microspora; test: Fungicidal activity against Pestalotiopsis microspora isolates infected Chinese hickory orchards by conidium germination test; type: functional, organism-based

SMILES | EC50 [1] [µg/mL] | Ratio EC50 [2] | EC50 [3] [µg/mL] | Ratio EC50 [4] | EC50 [5] [µg/mL] | EC50 [6] [µg/mL] | EC50 [7] [µg/mL] | EC50 [8] [µg/mL] | Ratio EC50 [9] | Ratio EC50 [10] | EC50 [11] [µg/mL] | Ratio EC50 [12] | EC50 [13] [µg/mL] | EC50 [14] [µg/mL] | EC50 [15] [µg/mL]
CO/C=C(/C(=O)OC)c1ccccc1Oc1cc(Oc2ccccc2C#N)ncn1 [AZOXYSTROBIN] | 0.32 (≈ 0.793 µM) | 28.82 | 21.9 (≈ 54.3 µM) | 22.75 | 0.76 (≈ 1.88 µM) | 15.4 (≈ 38.2 µM) | 4.78 (≈ 11.8 µM) | 2.61 (≈ 6.47 µM) | 38.16 | 20.25 | 12.2 (≈ 30.3 µM) | 14.94 | 17.3 (≈ 42.9 µM) | 1.36 (≈ 3.37 µM) | 
O=C(Nc1ccccc1-c1ccc(Cl)cc1)c1cccnc1Cl [BOSCALID] | 20.1 (≈ 58.6 µM) | 0.95 | 17.7 (≈ 51.6 µM) | 0.97 | 18.6 (≈ 54.2 µM) | 19 (≈ 55.4 µM) | 19.7 (≈ 57.4 µM) | 167 (≈ 486 µM) | 1.02 | 1.05 | 20.6 (≈ 60 µM) | 0.98 | 18.1 (≈ 52.7 µM) | 23.9 (≈ 69.7 µM) | 
N#Cc1c(Cl)c(Cl)c(Cl)c(C#N)c1Cl [CHLOROTHALONIL] |  |  |  |  |  |  |  | 2.08 (≈ 7.82 µM) |  |  |  |  |  | 3.05 (≈ 11.5 µM) | 
CC1COC(Cn2cncn2)(c2ccc(Oc3ccc(Cl)cc3)cc2Cl)O1 (configuration not stated) [DIFENOCONAZOLE] |  |  |  |  |  |  |  | 4.27 (≈ 10.5 µM) |  |  |  |  |  | 28.5 (≈ 70.1 µM) | 
CC(=O)O.CCCCCCCCCCCCNC(=N)N [DODINE] |  |  |  |  |  |  |  | 27 |  |  |  |  |  | 32.7 | 
CC(C)NC(=O)N1CC(=O)N(c2cc(Cl)cc(Cl)c2)C1=O [IPRODIONE] |  |  |  |  |  |  |  | 2.03 (≈ 6.15 µM) |  |  |  |  |  | 9.87 (≈ 29.9 µM) | 
CC12CC1(C)C(=O)N(c1cc(Cl)cc(Cl)c1)C2=O (configuration not stated) [PROCYMIDONE] |  |  |  |  |  |  |  | 1.68 (≈ 5.91 µM) |  |  |  |  |  | 12 (≈ 42.3 µM) | 
COC(=O)N(OC)c1ccccc1COc1ccn(-c2ccc(Cl)cc2)n1 [PYRACLOSTROBIN] | 0.03 (≈ 0.0774 µM) | 240 | 9.59 (≈ 24.7 µM) | 204 | 0.04 (≈ 0.103 µM) | 4.25 (≈ 11 µM) | 5.67 (≈ 14.6 µM) | 0.92 (≈ 2.37 µM) | 406 | 106 | 12.2 (≈ 31.4 µM) | 179 | 8.17 (≈ 21.1 µM) | 0.08 (≈ 0.206 µM) | 0.13 (≈ 0.335 µM)
CC(C)(C)C(O)(CCc1ccc(Cl)cc1)Cn1cncn1 (configuration not stated) [TEBUCONAZOLE] |  |  |  |  |  |  |  | 1.42 (≈ 4.61 µM) |  |  |  |  |  | 20.1 (≈ 65.3 µM) | 
COC(=O)NC(=S)Nc1ccccc1NC(=S)NC(=O)OC [THIOPHANATE METHYL] |  |  |  |  |  |  |  | 1.45 (≈ 4.23 µM) |  |  |  |  |  | 25.7 (≈ 75 µM) | 
